Measurements published in ChEMBL document CHEMBL1201861, “Genomics of Drug Sensitity in Cancer screening data, Wellcome Trust Sanger Institute”.

Columns and labels:
Assay in all cases: cells
Capan-2 = assay type: functional, cell-based; conditions: Homo sapiens;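 also: Capan-2 cell growth inhibition, read out with a viability assay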
Description: SANGER: Inhibition of human Capan-2 cell growth in a cell viability assay.

ChaGo-K-1 = assay type: functional, cell-based; conditions: Homo sapiens;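 also: growth inhibition of ChaGo-K-1 cells, read out with a cell viability assay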
Description: SANGER: Inhibition of human ChaGo-K-1 cell growth in a cell viability assay.

D-336MG = assay type: functional, cell-based; conditions: Homo sapiens
Description: SANGER: Inhibition of human D-336MG cell growth in a cell viability assay.

DoTc2-4510 = assay type: functional, cell-based; conditions: Homo sapiens
FaDu = assay type: functional, cell-based; conditions: Homo sapiens;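 also: cell viability readout of growth inhibition in FaDu cells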
Description: SANGER: Inhibition of human FADU cell growth in a cell viability assay.

G-361 = assay type: functional, cell-based; conditions: Homo sapiens
GAMG = assay type: functional, cell-based; conditions: Homo sapiens;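 also: cell growth inhibition measured by a viability assay in the GAMG human cell line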
Description: SANGER: Inhibition of human GAMG cell growth in a cell viability assay.

H4 = assay type: functional, cell-based; conditions: Homo sapiens
Description: SANGER: Inhibition of human H4 cell growth in a cell viability assay.

HCC1806 = assay type: functional, cell-based; conditions: Homo sapiens;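 also: growth inhibition of the cancer cell line, determined with a cell viability assay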
Description: SANGER: Inhibition of human HCC1806 cell growth in a cell viability assay.

HCC38 = assay type: functional, cell-based; conditions: Homo sapiens;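 also: cell viability assay on the human HCC38 cell line, with IC50 marking the concentration that inhibits cell growth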
Description: SANGER: Inhibition of human HCC38 cell growth in a cell viability assay.

HSC-2 = assay type: functional, cell-based; conditions: Homo sapiens;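 also: growth inhibition of human HSC-2 cells, read out by a cell viability assay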
Description: SANGER: Inhibition of human HSC-2 cell growth in a cell viability assay.

HT1197 = assay type: functional, cell-based, HT-1197; conditions: Homo sapiens
Description: SANGER: Inhibition of human HT-1197 cell growth in a cell viability assay.

HT-29 = assay type: functional, cell-based; conditions: Homo sapiens;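 also: growth inhibition of human HT-29 cells, read out by a cell viability assay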
Description: SANGER: Inhibition of human HT-29 cell growth in a cell viability assay.

Huh-7 = assay type: functional, cell-based; conditions: Homo sapiens;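 also: HuH-7 cell growth inhibition, read out with a cell viability assay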
Description: SANGER: Inhibition of human HuH-7 cell growth in a cell viability assay.

HuO9 = assay type: functional, cell-based; conditions: Homo sapiens;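 also: growth inhibition of HuO9 cells, read out with a cell viability assay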
Description: SANGER: Inhibition of human HuO9 cell growth in a cell viability assay.

KYSE-180 = assay type: functional, cell-based; conditions: Homo sapiens;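 also: growth inhibition of KYSE-180 cells, read out with a cell viability assay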
Description: SANGER: Inhibition of human KYSE-180 cell growth in a cell viability assay.

LCLC-103H cell line = assay type: functional, cell-based; conditions: Homo sapiens
Description: SANGER: Inhibition of human LCLC-103H cell growth in a cell viability assay.

LoVo = assay type: functional, cell-based; conditions: Homo sapiens;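 also: growth inhibition of human LoVo cells, read out with a cell viability assay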
Description: SANGER: Inhibition of human LoVo cell growth in a cell viability assay.

M14 = assay type: functional, cell-based; conditions: Homo sapiens;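 also: growth inhibition of M14 cells, read out with a cell viability assay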
Description: SANGER: Inhibition of human M14 cell growth in a cell viability assay.

MDA-MB-175-VII = assay type: functional, cell-based; conditions: Homo sapiens
MEL-JUSO = assay type: functional, cell-based; conditions: Homo sapiens;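 also: growth inhibition of human MEL-JUSO cells, read out with a cell viability assay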
Description: SANGER: Inhibition of human MEL-JUSO cell growth in a cell viability assay.

MKN-28 = assay type: functional, cell-based; conditions: Homo sapiens;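 also: cell viability assay read-out, IC50 reflects suppression of growth of human MKN-28 cells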
Description: SANGER: Inhibition of human MKN28 cell growth in a cell viability assay.

MKN-7 = assay type: functional, cell-based; conditions: Homo sapiens;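 also: growth inhibition of MKN-7 cells, read out with a cell viability assay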
Description: SANGER: Inhibition of human MKN7 cell growth in a cell viability assay.

NB7 = assay type: functional, cell-based; conditions: Homo sapiens;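 also: growth inhibition of NB7 cells, read out with a cell viability assay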
Description: SANGER: Inhibition of human NB7 cell growth in a cell viability assay.

NCI-H1755 = assay type: functional, cell-based; conditions: Homo sapiens;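 also: cell viability readout used to measure growth inhibition of NCI-H1755 cells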
Description: SANGER: Inhibition of human NCI-H1755 cell growth in a cell viability assay.

NCI-H1793 = assay type: functional, cell-based; conditions: Homo sapiens;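 also: cell growth inhibition, read out by a cell viability assay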
Description: SANGER: Inhibition of human NCI-H1793 cell growth in a cell viability assay.

NCI-H441 = assay type: functional, cell-based; conditions: Homo sapiens;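 also: growth inhibition of NCI-H441 cells, read out with a cell viability assay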
Description: SANGER: Inhibition of human NCI-H441 cell growth in a cell viability assay.

NUGC-3 = assay type: functional, cell-based; conditions: Homo sapiens;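 also: growth inhibition of human NUGC-3 cells, read out with a cell viability assay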
Description: SANGER: Inhibition of human NUGC-3 cell growth in a cell viability assay.

Panc1005 = assay type: functional, cell-based; conditions: Homo sapiens;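 also: growth inhibition of human PANC-10-05 cells, measured by a cell viability assay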
Description: SANGER: Inhibition of human PANC-10-05 cell growth in a cell viability assay.

PC-3 = assay type: functional, cell-based; conditions: Homo sapiens;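 also: cell viability assay measuring growth inhibition of PC-3 cells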
Description: SANGER: Inhibition of human PC-3 cell growth in a cell viability assay.

PFSK-1 = assay type: functional, cell-based; conditions: Homo sapiens;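 also: cell viability assay measuring how strongly compounds suppress growth of human PFSK-1 cells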
Description: SANGER: Inhibition of human PFSK-1 cell growth in a cell viability assay.

RT-112 = assay type: functional, cell-based; conditions: Homo sapiens
Description: SANGER: Inhibition of human RT-112 cell growth in a cell viability assay.

SAS = assay type: functional, cell-based; conditions: Homo sapiens;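 also: growth inhibition of SAS cells, read out with a cell viability assay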
Description: SANGER: Inhibition of human SAS cell growth in a cell viability assay.

SCC-9 = assay type: functional, cell-based; conditions: Homo sapiens;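 also: Read-out is a cell viability assay, with values giving inhibition of cell growth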
Description: SANGER: Inhibition of human SCC-9 cell growth in a cell viability assay.

SK-LU-1 = assay type: functional, cell-based; conditions: Homo sapiens;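 also: cell viability assay measuring growth inhibition of human SK-LU-1 cells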
Description: SANGER: Inhibition of human SK-LU-1 cell growth in a cell viability assay.

SK-MEL3 = assay type: functional, cell-based, SK-MEL-3; conditions: Homo sapiens;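 also: growth inhibition of human SK-MEL-3 cells, read out with a cell viability assay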
Description: SANGER: Inhibition of human SK-MEL-3 cell growth in a cell viability assay.

SW1783 = assay type: functional, cell-based; conditions: Homo sapiens;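 also: cell growth inhibition measured with a viability assay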
Description: SANGER: Inhibition of human SW1783 cell growth in a cell viability assay.

SW837 = assay type: functional, cell-based; conditions: Homo sapiens;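 also: growth inhibition of SW837 cells, determined with a cell viability assay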
Description: SANGER: Inhibition of human SW837 cell growth in a cell viability assay.

T47D = assay type: functional, cell-based; conditions: Homo sapiens;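 also: growth inhibition of human T47D cells, measured with a cell viability assay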
Description: SANGER: Inhibition of human T47D cell growth in a cell viability assay.

CWR22R = assay type: functional, cell-based; conditions: Homo sapiens, 22Rv1;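 also: growth inhibition of 22Rv1 cells, read out with a cell viability assay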
Description: SANGER: Inhibition of human 22RV1 cell growth in a cell viability assay.

5637 = assay type: functional, cell-based; conditions: Homo sapiens
Description: SANGER: Inhibition of human 5637 cell growth in a cell viability assay.

A-431 = assay type: functional, cell-based; conditions: Homo sapiens;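 also: growth inhibition of A-431 cells, determined with a cell viability read-out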
Description: SANGER: Inhibition of human A431 cell growth in a cell viability assay.

A673 = assay type: functional, cell-based; conditions: Homo sapiens;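 also: growth inhibition of human A673 cells, read out through a cell viability assay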
Description: SANGER: Inhibition of human A673 cell growth in a cell viability assay.

ACHN = assay type: functional, cell-based; conditions: Homo sapiens;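 also: cell viability read-out used to gauge how strongly growth of human ACHN cells is suppressed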
Description: SANGER: Inhibition of human ACHN cell growth in a cell viability assay.

ASPC1 = assay type: functional, cell-based; conditions: Homo sapiens;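 also: growth inhibition of AsPC-1 cells, read out with a cell viability assay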
Description: SANGER: Inhibition of human AsPC-1 cell growth in a cell viability assay.

BCPAP = assay type: functional, cell-based; conditions: Homo sapiens;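 also: growth inhibition of BCPAP cells, read out in a cell viability assay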
Description: SANGER: Inhibition of human BCPAP cell growth in a cell viability assay.

BHT-101 = assay type: functional, cell-based; conditions: Homo sapiens
Description: SANGER: Inhibition of human BHT-101 cell growth in a cell viability assay.

C-33-A = assay type: functional, cell-based; conditions: Homo sapiens;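 also: cell viability assay measuring growth inhibition of C-33-A cells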
Description: SANGER: Inhibition of human C-33-A cell growth in a cell viability assay.

C3A = assay type: functional, cell-based; conditions: Homo sapiens;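 also: growth inhibition of C3A human cells, quantified with a cell viability readout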
Description: SANGER: Inhibition of human C3A cell growth in a cell viability assay.

CAL-33 = assay type: functional, cell-based; conditions: Homo sapiens;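 also: growth inhibition of CAL-33 cells, read out with a cell viability assay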
Description: SANGER: Inhibition of human CAL-33 cell growth in a cell viability assay.

TGW = assay type: functional, cell-based; conditions: Homo sapiens;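 also: growth inhibition of human TGW cells, read out with a cell viability assay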
Description: SANGER: Inhibition of human TGW cell growth in a cell viability assay.

YKG-1 = assay type: functional, cell-based; conditions: Homo sapiens;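 also: cell growth inhibition, read out with a viability assay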
Description: SANGER: Inhibition of human YKG-1 cell growth in a cell viability assay.

CCCS(=O)(=O)Nc1ccc(F)c(C(=O)c2c[nH]c3ncc(Cl)cc23)c1F [PLX-4720]
IC50 (Capan-2): > 10 µM
IC50 (ChaGo-K-1): > 10 µM
IC50 (D-336MG): > 10 µM
IC50 (DoTc2-4510): > 10 µM
IC50 (FaDu): > 10 µM
IC50 (G-361): 0.346 µM
IC50 (GAMG): > 10 µM
IC50 (H4): 6.22 µM
IC50 (HCC1806): 6.82 µM
IC50 (HCC38): > 10 µM
IC50 (HSC-2): > 10 µM
IC50 (HT1197): > 10 µM
IC50 (HT-29): > 10 µM
IC50 (Huh-7): > 10 µM
IC50 (HuO9): > 10 µM
IC50 (KYSE-180): > 10 µM
IC50 (LCLC-103H cell line): > 10 µM
IC50 (LoVo): > 10 µM
IC50 (M14): 0.218 µM
IC50 (MDA-MB-175-VII): > 10 µM
IC50 (MEL-JUSO): > 10 µM
IC50 (MKN-28): > 10 µM
IC50 (MKN-7): > 10 µM
IC50 (NB7): 6.21 µM
IC50 (NCI-H1755): > 10 µM
IC50 (NCI-H1793): > 10 µM
IC50 (NCI-H441): > 10 µM
IC50 (NUGC-3): > 10 µM
IC50 (Panc1005): > 10 µM
IC50 (PC-3): > 10 µM
IC50 (PFSK-1): > 10 µM
IC50 (RT-112): > 10 µM
IC50 (SAS): > 10 µM
IC50 (SCC-9): > 10 µM
IC50 (SK-LU-1): > 10 µM
IC50 (SK-MEL3): 0.516 µM
IC50 (SW1783): > 10 µM
IC50 (SW837): > 10 µM
IC50 (T47D): > 10 µM
IC50 (CWR22R): > 10 µM
IC50 5637: > 10 µM
IC50 (A-431): > 10 µM
IC50 (A673): > 10 µM
IC50 (ACHN): > 10 µM
IC50 (ASPC1): > 10 µM
IC50 (BCPAP): 7.22 µM
IC50 (BHT-101): 0.707 µM
IC50 (C-33-A): > 10 µM
IC50 (C3A): > 10 µM
IC50 (CAL-33): > 10 µM
IC50 (TGW): > 10 µM
IC50 (YKG-1): > 10 µM
